Assay results reported in publication PMC3693772, “Protein expression, biochemical pharmacology of signal transduction, and relation to intraocular pressure modulation by bradykinin B2 receptors in ciliary muscle” (Molecular Vision, 2013).
Values joined by “and” are separate entries in the source; they are usually repeats but may differ in a detail not shown here. Equal entries are not always repeated. “Also recorded” adds a separate entry of the source. Where two headings read alike, the source gives them in different places.

Columns and labels:
[1] = test system: rabbit eyes; test: IOP after intravitreal injection in Dutch-Belt rabbits; assay type: in vivo, pigmented Dutch-Belt rabbit; details: for IOP reduction, rabbit: 50 µg intravitreal, n=7–10
Description: Intraocular pressure measurements
To extend our in vitro observations of the high density of B2-receptor protein in human and cynomolgus monkey ciliary muscle and non-pigmented ciliary epithelium, we studied the effects of topically administered BK (100 µg total dose in a sterile vehicle) on IOP in normotensive and TM-ablated hypertensive eyes of these animals. […] However, since we could not subject the monkeys to additional studies involving BK delivery to the eye interior, it was decided that intravitreal (ivt) injection of BK into pigmented Dutch-Belt rabbits would be worth pursuing. Thus, after light corneal anesthesia with 0.1% proparacaine, basal IOPs were determined in up to 10 Dutch-Belt rabbits using an Alcon Pneumotonometer (Alcon Laboratories Inc., Fort Worth, TX). After this time, 50 µg of BK (B2 agonist) or Des-Arg^9-BK (B1 agonist) in 20 µl of sterile basal salt solution (BSS plus), or just BSS plus vehicle, was injected ivt into one eye of each rabbit and the IOP determined at various times thereafter. Authors confirm adherence to the ARVO Statement for Animals in Ophthalmic and Vision Research, with all animal studies conducted according the guidelines for Animal Care and Use at Alcon Research Ltd.
Figure 8 Time-course of changes in rabbit intraocular pressure (IOP) with different kinin peptide agonists. Three groups of Dutch-Belt rabbits (n=7–10/group) were injected ivt in one eye with either vehicle or 50 µg of BK or 50 µg of Des-Arg^9-BK dissolved in the vehicle and the IOP monitored over time. Data are mean±SEM.

[2] = test system: primary h-CM cells; assay type: cell-based, human
[3] = test system: h-CM cells; test: Nitric oxide production in h-CM cells; assay type: cell-based, human; details: BK 0.1 and 1 µM; data not shown
Text: Measurement of nitric oxide production
In certain cell types, BK elevates intracellular levels of nitric oxide (NO), which in turn causes the generation of cGMP via the soluble guanylate cyclase in the cell cytosol. In the present studies, we determined whether the B2 receptors in h-CM cells were coupled to NO production using a specific kit (Promega Corp., Madison, WI) and according to the manufacturer’s instructions.

[4] = test system: h-CM cells; test: PGD2 production in h-CM cells; assay type: cell-based, human; details: with or without BK; limit of detection PGD2=200 pg/ml
[5] = test system: CHO-B2 cells; assay type: cell-based, Chinese hamster ovary cells, human cloned B2 receptor; details: 1 h at 37 °C; enzyme immunoassay; mean ± SEM, 3 to 6 experiments; read-out: PGE2 production in CHO-B2 cells (EC50)
[6] = test system: pro-MMPs, h-CM cells; test: pro-MMP release from h-CM cells (several pro-MMPs stated together); assay type: cell-based, human; details: BK 0.1–1 µM at 24 h
Description: Measurement of extracellular signal-regulated kinase-1/2 phosphorylation and pro-matrix metalloproteinase production
The release of pro-MMP-1/2/3 in the extracellular medium of h-CM cells exposed to kinin’s, for 24 h at 37 °C [29, 30] was studied next. Thus, h-CM cells isolated from multiple human donor eyes were cultured as described above and then serum-starved for 24 h prior to the addition of any test compound. Cells were incubated with the vehicle or test compound for 24 hours at 37 °C after which the medium was collected and concentrated ten-fold using Centricon concentrators (Millipore Corp., Bellireca, MA). Equal volumes of this concentrate were loaded on 10% SDS-polyacrylamide gels (SDS-PAGE) and the proteins separated and transferred to nitrocellulose membranes. The membranes were then blocked with 5% non-fat dry milk (Bio-Rad Laboratories, Hercules, CA) followed by incubation with antibodies to pro-MMP-1, pro-MMP-2, or pro-MMP-3 for 12 hours at 4 °C with gentle shaking. After washing, these membranes were incubated with appropriate secondary antibodies (HRP-conjugated; dilution 1:3000) for 1 hour at 20 °C. […] For chemiluminescent detection, the membranes were treated with enhanced chemiluminescent reagent (Amersham Pharmacia, Piscataway, NJ) and the signal was quantified using a Bio-Rad Versadoc imaging system (Bio-Rad Laboratories, Hercules, CA).

[7] = test system: primary h-TM cells; assay type: cell-based, human; details: preliminary data, values rounded-off, read-out: Agonist potency at stimulating [Ca^2+]i mobilization in primary h-TM cells (EC50)
[8] = test system: CHO-B2 cells; details: read-out: PGD2 production in CHO-B2 cells (EC50), 1 h at 37 °C, enzyme immunoassay
Description: Measurement of prostaglandins in human ciliary muscle and Chinese hamster ovary cells expressing B2 receptors
This involved stimulating h-CM cells and CHO-B2 cells with various concentrations of test peptides and measuring the release of various PGs in the extracellular medium. The concentration-dependent effects of these peptides on total PGs, and specifically PGE2, PGF2α, and PGD2 release, were studied. Cells were grown as a monolayer in a 24-well plate (precoated with fibronectin) to confluence and subsequently serum-starved overnight before the experiment. On the day of the experiment, just before the drug was added, the wells were aspirated completely, and 990 µl basal medium and 10 µl 100× series of concentrations of the different peptide agonists were added to achieve the desired final concentrations of each compound (e.g., 0.1 nM to 10 µM). […] At the end of the incubation period, the cellular supernatants were collected and stored at −80 °C or used immediately to determine the PG content. Cell supernatants were tested for total PG levels and sub-species of PGs (PGE2, PGF2α, and PGD2) using specific competitive enzyme immunoassays (Cayman Chemical Co., Ann Arbor, MI) as directed in the manufacturer’s recommended protocols using the supplied standards and reagents. The limits of detection for various PGs were as follows: total PGs=29 pg/ml; PGE2=15 pg/ml; PGF2α=9 pg/ml; PGD2=200 pg/ml.

[9] = test system: ERK1/2 phosphorylation, CHO-B2 cells; test: ERK1/2 phosphorylation in CHO-B2 cells (HTRF); assay type: cell-based, Chinese hamster ovary cells, human cloned B2 receptor; details: high basal background
[10] = test system: CHO-B2 cells (human cloned B2 receptor); assay type: cell-based, Chinese hamster ovary cells
[11] = test system: h-TM cells; details: ref [23]; cited from earlier work

With H-RPPGFSPFR-OH [BK] the “IOP reduction, rabbit” value ([1]; 5 h post-injection) was 22.9±7.3%, the “IOP reduction, rabbit” value ([1]; 8 h post-injection (maximal)) was 37.0±5.6% and the “Effect on rabbit IOP” value ([1]; BK 50 µg intravitreal, 5–8 h post injection) was “time-dependent reduction in IOP; also recorded: robust lowering of the IOP”. For the same substance, the EC50 ([2]; 1 h at 37 °C, enzyme immunoassay, mean ± SEM, 3 to 6 experiments, read-out: Total PGs production in h-CM cells (EC50)) was 8.6 ± 2.4 nM, the “BK-induced total PGs production/secretion, h-CM cells” value ([2]; BK 100 nM (0.1 µM) to 10 µM, n=8) was 393.3 ± 24.2 pg/mL and 393.3 pg/mL and the “Total PG secretion above basal levels” value ([2]; BK 1 µM, Figure 6A, single experiment) was “substantially increased the PGs secreted above the basal levels”. For the same substance, the “Effect on NO levels” value [3] was “failed to have any effect on NO levels; also recorded: failed to do so in h-CM cells”, the “PGD2 release in h-CM cells” value [4] was “no PGD2 was detected” and the EC50 [5] was 0.0328 ± 0.00903 nM. The “Increase in promatrix metalloproteinases-1–3 release” value [6] was 1.4–3.1 fold, the EC50 [7] was 1 nM and the EC50 ([8]; first of two values in cell) was 0.0113 nM. For the same substance, the EC50 ([8]; second of two values in cell) was 0.181 nM, the “ERK1/2 phosphorylation response in CHO-B2 cells” value [9] was “did not obtain a meaningful response” and the EC50 ([10]; 1 h at 37 °C, enzyme immunoassay, mean ± SEM, 3 to 6 experiments, read-out: Total PGs production in CHO-B2 cells (EC50)) was 0.0263 ± 0.0066 nM. For the same substance, the “BK-induced total PGs production/secretion, CHO-B2 cells” value ([10]; n=6) was 913.6 ± 47.6 pg/mL and 913.6 pg/mL, the “Elevation in extracellular PGs, CHO-B2 cells” value ([10]; relative to basal levels) was 4.9 fold and the “ERK1/2 phosphorylation in h-TM cells” value [11] was “stimulate ERK1/2 phosphorylation”.
